Experiment [1] addresses HLA-A*2902 (Homo sapiens, UniProt P04439, A270S/D101N/D185E/E176V/E277Q/E87Q/F33T/G231S/H175R/I121M/I218V/I322F/K168Q/L300P/L318F/M331R/P208A/P217A/Q86L/T323A/T345S/V100A/V358M). Kind of experiment: MHC molecular binding / Capture assay, IC50: A*2902.
The target of experiment [2] is HLA-A*0101 (Homo sapiens, UniProt P04439, A114D/A174V/A182V/D101N/D185E/E176A/E190D/L180R/Q94H/R68K/S129P/T187R/V100A/V91M/W191G). Put plainly: biochemical. It counts as binding.
Experiment [3] addresses HLA-B*4002 (Homo sapiens, UniProt P01889, A65T/A93T/A95T/D138N/D201E/D98Y/E176V/E204Q/E69K/K202T/N87E/Q56L/Q94N/R180L/S48T/Y33H/Y91S). Put plainly: biochemical. It counts as binding.
The target of experiment [4] is HLA-B*4403 (Homo sapiens, UniProt P01889, A223V/A65T/A93T/A95T/D201E/D98Y/E176V/E187L/E204Q/E69K/G107R/H137Y/K202T/L105A/L119I/N104T/N87E/Q56L/Q94N/R106L/R155S/R180L/S101N/S121R/S35A/S48T/T118I/V36M/W191S/Y140D/Y91S). Put plainly: biochemical. It counts as binding.
Experiment [5] deals with HLA-B*4501 (Homo sapiens, UniProt P01889, A329T/A65T/A93T/A95T/C349S/D138N/D201E/D98Y/E176V/E187L/E204Q/E69K/H137Y/K202T/L119W/N87E/Q56L/Q94N/R155S/R180D/S121R/S35A/S48T/V127L/V306I/V36M/W191S/Y140L/Y33H/Y91S). Kind of experiment: biochemical. It counts as binding.
Experiment [6] deals with HLA-B*4402 (Homo sapiens, UniProt P01889, A223V/A65T/A93T/A95T/D201E/D98Y/E176V/E187L/E204Q/E69K/G107R/H137Y/K202T/L105A/L119I/N104T/N87E/Q56L/Q94N/R106L/R155S/R180D/S101N/S121R/S35A/S48T/T118I/V36M/W191S/Y140D/Y91S). Put plainly: biochemical. It counts as binding.
Experiment [7] has as its target HLA-B*1801 (Homo sapiens, UniProt P01889, A329T/A93T/A95T/C349S/D201E/D54G/D98Y/E176V/E187T/E204Q/E69T/K202T/Q94N/R155S/R180L/S121R/V306I/Y140S/Y195H/Y33H/Y91S). Put plainly: biochemical. It counts as binding.
Experiment [8] has as its target HLA-B*4001 (Homo sapiens, UniProt P01889, A65T/A93T/A95T/D138N/D98Y/E176V/E69K/N87E/Q56L/Q94N/R180L/S121R/S35A/S48T/T167S/V36M/W171L/Y33H/Y91S). Kind of experiment: biochemical. It counts as binding.
For experiment [9], the target named is HLA-A*3002 (Homo sapiens, UniProt P04439, D101N/D140H/D185E/E176R/F33S/G80R/H175R/K168Q/Q94H/R138E/R41S/V100E). Kind of experiment: biochemical. It counts as binding.
Setting [10] is: Binding affinity to A*0101 (expressed as an IC50).
The mark [11] stands for this setting: read-out: Binding affinity to A*0101 (expressed as an IC50).
Setting [12] is: Binding affinity to A*3002 (expressed as an IC50).

“And” between values parts separate entries of the source, which are not always exact repeats. Equal values may be shown once. Read-outs that look alike come from different tables or passages of the source. No end group written: not given here.

In the case of RTETPTLQDY, the IC50 in experiment [1] is 1.99 µM; in [2] (setting [10]), 0.011 µM and 0.04 µM.

On to DENLWVTVY, for which the IC50 is 41.1 µM in [3]; 0.988 µM in experiment [4]; 49 µM in [5] (read-out: B*4501); 4.59 µM in [6]; 0.026 µM in experiment [7]; over 72.7 µM in experiment [8].

Turning to AENLNVTVY, the IC50 in experiment [3] came to 3.54 µM; in [4], 0.358 µM; in experiment [5] it was 2.44 µM; in experiment [6] it was 0.447 µM; in [7], 0.198 µM; in experiment [8], 0.564 µM.

In the case of LSGPGPGAIFY, the IC50 in experiment [2] (setting [11]) amounted to 0.025 µM.

On to TLEGPGPGGLY, for which the results for the IC50 in [9] (setting [12]) and in [2] (setting [10]) were 0.04 µM and 0.011 µM, respectively.

As for KTGPGPGHLY, the IC50 in [9] (setting [12]) was 0.0013 µM; in experiment [2] (setting [10]) it was 0.029 µM.

Turning to GEFPYKAAA, the IC50 in experiment [3] (B*4002) amounted to 0.0039 µM; in experiment [4] (B*4403), 2.54 µM; in experiment [5] (B*4501), 0.011 µM; in [6] (B*4402), 0.746 µM; in experiment [8] (B*4001), 0.17 µM.

In experiment [2] (setting [10]), ATSNYYIVTY displayed an IC50 of 0.428 µM.

Consider KTYGPGPGLY, for which the IC50 in experiment [9] (setting [12]) came to 0.00096 µM; in experiment [2] (setting [10]), 0.0057 µM.

Regarding LSLGPGPGFY, the IC50 in experiment [9] (setting [12]) came out at 0.0082 µM; in [2] (setting [10]), 0.021 µM.

Take WVYHTQGYY: the figures for the IC50 in experiment [9] and in experiment [2] (setting [10]) were 0.0056 µM and 0.703 µM, respectively.

As to ATDNYYIVTY, the IC50 was 0.065 µM in experiment [9]; 0.0074 µM and 0.019 µM in experiment [2] (setting [10]).

For the molecule `C[C@H](NC(=O)[C@H](Cc1c[nH]c2ccccc12)NC(=O)[C@H](Cc1ccc(O)cc1)NC(=O)[C@H](CC(=O)O)NC(=O)[C@H](Cc1ccc(O)cc1)NC(=O)[C@@H](NC(=O)CN)[C@@H](C)O)C(=O)NCC(=O)N[C@@H](Cc1ccc(O)cc1)C(=O)O`, the IC50 in experiment [2] (setting [10]) came to 0.141 µM.

Consider LEASISGKY, for which the IC50 was 0.087 µM in experiment [9] and 57.8 µM in experiment [2] (setting [10]).

MDIDPYKEF: the IC50 in [3] (B*4002) amounted to 0.382 µM; in experiment [4] (B*4403), 1.95 µM; in experiment [5] (B*4501), 2.61 µM; in experiment [6] (B*4402) it was 21.7 µM; in [7] (B*1801) it was 169 µM; in experiment [8] (B*4001) it was 3.7 µM.

In the case of ETRHYCYSLY, the values for the IC50 in experiment [9] and in experiment [2] (setting [10]) were 0.01 µM and 0.043 µM, respectively.

Turning to DLWYYHTQGYY, in experiment [2] (setting [11]), the IC50 was found to be 5.88 µM.

As to AENLWVTVM, the IC50 in [3] turned out to be 0.0061 µM; in [4], 0.035 µM; in experiment [5], 0.05 µM; in [6], 0.195 µM; in experiment [7], 0.508 µM; in experiment [8], 0.013 µM.

The molecule `CC(C)C[C@H](NC(=O)[C@H](C)N)C(=O)N[C@@H](Cc1ccccc1)C(=O)N[C@@H](CCC(N)=O)C(=O)N[C@@H](CCC(=O)O)C(=O)N[C@@H](Cc1ccc(O)cc1)C(=O)N[C@@H](CCC(N)=O)C(=O)N[C@@H](CS)C(=O)N[C@@H](Cc1ccc(O)cc1)C(=O)O` had an IC50 in experiment [2] (setting [10]) of over 42 µM.

In experiment [2] (setting [10]), ISEYRHYQY registered an IC50 of 0.04 µM.

In the case of AENLWVTVP, the IC50 in [3] was 0.339 µM; in experiment [4] it was 2.47 µM; in [5] it was 0.187 µM; in [6], 7.72 µM; in experiment [7], 38.4 µM; in experiment [8] it was 9.71 µM.

With `CC[C@H](C)[C@H](NC(=O)[C@@H](NC(=O)[C@H](CC(C)C)NC(=O)[C@H](CC(=O)O)NC(=O)[C@@H](NC(=O)[C@@H](N)Cc1ccccc1)[C@@H](C)O)[C@@H](C)O)C(=O)N[C@H](C(=O)N[C@@H](Cc1ccc(O)cc1)C(=O)O)C(C)C`, the IC50 is 39 µM in experiment [9]; 0.016 µM and 0.034 µM in experiment [2] (setting [10]).

(Values after patent US20060079453A1, “Hla binding peptides and their uses” (priority 2002, published 2006).)
